# In article PMC9986306, “Beyond CBD: Inhibitory effects of lesser studied phytocannabinoids on human voltage-gated sodium channels” (Frontiers in Physiology, 2023):
# Marks after values point to notes of the source that are not given here.
# Columns and labels:
# [1] = target: T1, human NaV1.1 channel (SCN1A, HEK293T cells) (Homo sapiens, UniProt P35498); assay: Planar patch-clamp, inhibition of peak sodium current (IC50 protocol); type: cell-based; conditions: NaV1.1; 0.1–100 μM, no maximal inhibition at 100 µM
# T1 construct: expressed in transfected cells
# Description: (§1) HEK293T cells stably expressing SCN1A or SCN2A and CHO cells stably expressing SCN8A or SCN9A were maintained as previously described ([Richards et al., 2018]; [Milligan et al., 2022]).
# (§2) Patch-clamp recordings were made using a Patchliner® (Nanion Technologies, Munich, Germany) in the whole-cell configuration as previously described ([Richards et al., 2018]; [Milligan et al., 2022]). Briefly, cells were prepared in suspension at a density of 1 × 10^6-5 × 10^7 cells/mL. The external recording solution comprised (in mM): 140 NaCl, 4 KCl, 1 MgCl2, 2 CaCl2, 5 D-glucose, 10 HEPES, pH 7.4 with NaOH, ∼295 mOsm. The internal recording solution comprised (in mM): 50 CsCl, 60 CsF, 10 NaCl, 20 EGTA, 10 HEPES, pH 7.2 with CsOH, ∼285 mOsm. Medium single-hole planar NPC-16 chips with an average resistance of ∼2.5 MΩ were used. Chip and whole-cell capacitance were fully compensated, and 50% series resistance compensation applied. Recordings were acquired at 50 kHz with the low pass filter set to 10 kHz in PATCHMASTER (HEKA Instruments, NY, United States) and performed at 27°C. Offline analysis was performed using Microsoft Excel, MatLab R2019a (MathWorks) and GraphPad Prism 8 (Molecular Devices).
# (§3) To determine half-maximal inhibitory concentrations (IC50), cells were held at −80 mV, stepped to −120 mV for 200 ms followed by 50 ms test depolarization to 0 mV every 2 s for 30 s in the presence of vehicle control (DMSO). The cells were then exposed to an individual phytocannabinoid (CBD, CBGA, CBDVA, CBG, CBCA or CBC) at concentrations between 0.1 and 100 μM, sequentially for 5 min. Currents for individual cells were averaged over 24 s periods directly before application and following a 5 min exposure of compound. Leak subtraction was applied before normalization of current amplitude. Normalized mean data were fit to the Hill equation.
# [2] = target: T2, human NaV1.2 channel (SCN2A, HEK293T cells) (Homo sapiens, UniProt Q99250); assay: as above; type: cell-based; conditions: for Effect on peak sodium current (in words): NaV1.2, 0.1–100 μM, no maximal inhibition at 100 µM
# T2 construct: expressed in transfected cells
# T2 sequence (Q99250 whole entry): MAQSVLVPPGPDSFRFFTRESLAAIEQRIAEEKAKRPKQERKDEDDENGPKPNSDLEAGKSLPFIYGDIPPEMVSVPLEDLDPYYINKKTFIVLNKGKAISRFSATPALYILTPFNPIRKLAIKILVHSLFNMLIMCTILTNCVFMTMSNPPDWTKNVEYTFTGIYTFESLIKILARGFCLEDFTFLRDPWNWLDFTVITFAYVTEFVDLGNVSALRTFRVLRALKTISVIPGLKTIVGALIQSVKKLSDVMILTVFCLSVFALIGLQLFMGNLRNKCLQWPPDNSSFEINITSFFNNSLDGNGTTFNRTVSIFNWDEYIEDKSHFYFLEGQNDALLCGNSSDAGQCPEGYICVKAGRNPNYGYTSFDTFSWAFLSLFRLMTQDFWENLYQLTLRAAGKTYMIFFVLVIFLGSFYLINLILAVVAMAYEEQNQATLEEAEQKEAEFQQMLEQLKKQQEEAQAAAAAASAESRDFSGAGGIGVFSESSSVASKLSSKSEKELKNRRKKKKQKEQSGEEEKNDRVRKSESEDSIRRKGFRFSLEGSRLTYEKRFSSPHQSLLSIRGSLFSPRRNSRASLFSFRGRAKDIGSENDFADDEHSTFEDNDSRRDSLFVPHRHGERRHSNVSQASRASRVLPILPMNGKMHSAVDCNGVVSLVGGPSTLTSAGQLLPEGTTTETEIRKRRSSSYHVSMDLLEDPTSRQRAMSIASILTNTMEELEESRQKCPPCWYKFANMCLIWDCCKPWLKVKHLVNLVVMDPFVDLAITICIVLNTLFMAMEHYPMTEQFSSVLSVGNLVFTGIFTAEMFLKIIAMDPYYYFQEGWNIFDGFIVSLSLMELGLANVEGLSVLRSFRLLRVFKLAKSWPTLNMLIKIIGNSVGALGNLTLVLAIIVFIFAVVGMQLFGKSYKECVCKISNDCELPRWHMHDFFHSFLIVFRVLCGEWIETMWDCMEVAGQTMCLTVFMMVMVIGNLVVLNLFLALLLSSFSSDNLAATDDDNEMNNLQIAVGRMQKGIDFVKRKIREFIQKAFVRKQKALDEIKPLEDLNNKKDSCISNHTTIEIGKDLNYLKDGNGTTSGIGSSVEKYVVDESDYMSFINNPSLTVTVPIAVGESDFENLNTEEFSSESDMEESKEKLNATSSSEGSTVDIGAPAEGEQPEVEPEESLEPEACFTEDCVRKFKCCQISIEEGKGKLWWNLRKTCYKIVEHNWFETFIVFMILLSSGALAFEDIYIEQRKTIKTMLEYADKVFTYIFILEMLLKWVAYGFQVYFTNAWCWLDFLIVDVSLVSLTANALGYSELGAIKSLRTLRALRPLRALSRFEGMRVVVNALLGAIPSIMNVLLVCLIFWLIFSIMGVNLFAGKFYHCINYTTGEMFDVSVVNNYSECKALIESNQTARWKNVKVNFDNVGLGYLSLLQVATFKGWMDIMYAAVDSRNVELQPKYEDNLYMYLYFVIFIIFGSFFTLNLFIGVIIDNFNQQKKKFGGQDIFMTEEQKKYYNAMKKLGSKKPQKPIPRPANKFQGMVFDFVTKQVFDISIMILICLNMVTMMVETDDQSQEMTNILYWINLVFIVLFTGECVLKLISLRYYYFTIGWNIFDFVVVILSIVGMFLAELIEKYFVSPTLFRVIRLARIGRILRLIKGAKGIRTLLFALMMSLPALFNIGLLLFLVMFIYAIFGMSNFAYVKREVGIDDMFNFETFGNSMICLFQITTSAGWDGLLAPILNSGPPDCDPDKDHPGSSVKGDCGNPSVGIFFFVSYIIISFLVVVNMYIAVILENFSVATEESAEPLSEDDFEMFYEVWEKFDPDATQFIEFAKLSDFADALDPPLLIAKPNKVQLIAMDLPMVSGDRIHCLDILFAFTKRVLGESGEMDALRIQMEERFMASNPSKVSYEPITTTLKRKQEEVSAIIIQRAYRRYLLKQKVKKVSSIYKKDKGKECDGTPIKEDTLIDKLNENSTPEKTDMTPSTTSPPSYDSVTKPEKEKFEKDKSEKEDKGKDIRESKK
# Description: as §1, §2, §3
# [3] = target: T3, human NaV1.7 channel (SCN9A, CHO cells) (Homo sapiens, UniProt Q15858); assay: as above; type: cell-based; conditions: for Effect on peak sodium current (in words): NaV1.7, 0.1–100 μM, no maximal inhibition at 100 µM
# T3 construct: expressed in transfected cells
# Description: as §1, §2, §3
# [4] = target: T4, human NaV1.6 channel (SCN8A, CHO cells) (Homo sapiens, UniProt Q9UQD0); assay: as above; type: cell-based; conditions: for Effect on peak sodium current (in words): NaV1.6, 0.1–100 μM, no maximal inhibition at 100 µM
# T4 construct: expressed in transfected cells
# T4 sequence (Q9UQD0 whole entry): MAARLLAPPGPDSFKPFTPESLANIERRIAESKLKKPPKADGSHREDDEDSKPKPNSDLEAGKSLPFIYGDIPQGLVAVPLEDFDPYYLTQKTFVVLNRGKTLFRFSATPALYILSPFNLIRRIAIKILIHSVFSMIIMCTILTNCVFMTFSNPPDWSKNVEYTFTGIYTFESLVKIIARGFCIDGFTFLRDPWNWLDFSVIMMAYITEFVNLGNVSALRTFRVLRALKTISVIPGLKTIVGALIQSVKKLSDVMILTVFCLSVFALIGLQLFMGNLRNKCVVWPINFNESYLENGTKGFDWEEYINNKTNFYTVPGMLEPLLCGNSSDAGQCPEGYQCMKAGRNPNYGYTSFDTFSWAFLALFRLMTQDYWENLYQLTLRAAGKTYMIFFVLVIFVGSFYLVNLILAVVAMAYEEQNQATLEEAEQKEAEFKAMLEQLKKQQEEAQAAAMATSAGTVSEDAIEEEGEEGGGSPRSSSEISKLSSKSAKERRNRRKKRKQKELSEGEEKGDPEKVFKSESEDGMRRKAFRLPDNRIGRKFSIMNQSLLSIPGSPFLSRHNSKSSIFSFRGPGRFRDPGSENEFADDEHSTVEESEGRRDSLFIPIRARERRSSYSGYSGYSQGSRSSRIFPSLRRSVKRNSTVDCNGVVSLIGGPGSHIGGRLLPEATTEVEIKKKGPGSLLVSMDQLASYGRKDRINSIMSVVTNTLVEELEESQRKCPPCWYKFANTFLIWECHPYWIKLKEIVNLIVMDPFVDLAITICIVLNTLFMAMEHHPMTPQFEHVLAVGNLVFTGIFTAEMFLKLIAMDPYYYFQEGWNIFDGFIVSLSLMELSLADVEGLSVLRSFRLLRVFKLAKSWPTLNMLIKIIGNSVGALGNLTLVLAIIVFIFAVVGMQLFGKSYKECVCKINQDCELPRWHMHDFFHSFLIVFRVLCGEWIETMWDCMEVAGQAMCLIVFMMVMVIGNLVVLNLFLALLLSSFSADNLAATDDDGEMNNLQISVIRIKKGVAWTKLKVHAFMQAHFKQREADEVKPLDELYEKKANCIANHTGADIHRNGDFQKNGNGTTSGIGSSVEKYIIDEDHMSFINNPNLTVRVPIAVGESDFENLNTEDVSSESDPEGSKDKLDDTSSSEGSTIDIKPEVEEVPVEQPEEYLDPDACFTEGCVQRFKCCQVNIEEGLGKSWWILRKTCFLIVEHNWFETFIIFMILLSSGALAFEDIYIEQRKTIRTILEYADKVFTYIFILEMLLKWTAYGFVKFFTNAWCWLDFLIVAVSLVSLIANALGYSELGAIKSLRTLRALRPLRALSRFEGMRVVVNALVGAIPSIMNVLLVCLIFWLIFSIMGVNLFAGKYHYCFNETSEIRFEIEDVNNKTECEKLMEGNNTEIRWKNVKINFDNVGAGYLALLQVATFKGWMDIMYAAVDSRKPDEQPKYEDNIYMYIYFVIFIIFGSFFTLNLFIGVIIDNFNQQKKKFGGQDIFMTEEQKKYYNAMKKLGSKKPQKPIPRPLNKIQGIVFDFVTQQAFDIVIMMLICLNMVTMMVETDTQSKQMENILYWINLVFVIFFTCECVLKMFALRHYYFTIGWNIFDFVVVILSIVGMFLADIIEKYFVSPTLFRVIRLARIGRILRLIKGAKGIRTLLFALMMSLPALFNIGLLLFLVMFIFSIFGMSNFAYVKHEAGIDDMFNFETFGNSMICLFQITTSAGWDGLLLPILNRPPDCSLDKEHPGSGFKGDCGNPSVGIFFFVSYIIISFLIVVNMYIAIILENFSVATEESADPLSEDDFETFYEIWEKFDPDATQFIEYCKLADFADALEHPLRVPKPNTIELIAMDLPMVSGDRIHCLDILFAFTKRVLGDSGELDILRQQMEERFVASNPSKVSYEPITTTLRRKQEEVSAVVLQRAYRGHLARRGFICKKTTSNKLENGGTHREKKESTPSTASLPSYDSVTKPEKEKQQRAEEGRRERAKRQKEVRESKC
# Description: as §1, §2, §3
# [5] = tested on: Scn1a+/− mouse model of DS; set-up: method as in Anderson et al., 2021a; Anderson et al., 2021b; conditions: Scn1a+/− mice, ref Anderson et al., 2021a, 2021b; cited from earlier work
# [6] = tested on: electrically induced seizure model; set-up: method as in Davis and Hatoum, 1983; conditions: ref Davis and Hatoum, 1983; cited from earlier work
# [7] = target: T1, human NaV1.1 channel (SCN1A, HEK293T cells); assay: Planar patch-clamp, biophysical properties (activation, SSFI, recovery from SSFI); type: cell-based; conditions: change vs vehicle DMSO at IC50 concentration (CBD 18.5 μM, CBGA 13.6 μM, CBDVA 50 μM)
# Description: as §1, §2
# (§4) Voltage protocols were used, as previously described ([Richards et al., 2018]). Briefly, to study the voltage-dependence of activation, cells were held at −120 mV and depolarized to test potentials, in 5 mV increments, between −120 mV and +50 mV for 100 ms. To study steady-state fast inactivation, cells were held at conditioning pre-pulse potentials ranging from −120 mV to +30 mV in 5 mV increments from a holding potential of −120 mV and a test pulse at 5 mV for 20 ms. Recovery from fast inactivation was studied by pre-pulsing the cells to 0 mV from a holding potential of −120 mV for 50 ms, to fully inactivate channels. The voltage was then stepped back to the holding potential for variable interpulse intervals (ipi from 0 to 39 ms in 3 ms increments). To test channel availability, the voltage was stepped to 0 mV for 50 ms.
# (§5) To examine the voltage-dependence of activation, normalized current-voltage (I-V) relationships were converted to conductance (G) using the following equation: G = I/(V−V r ) where Vr is the reversal potential for Na^+. The voltage-dependence of conductance and availability were normalized and fitted to a Boltzmann equation: G = 1/(1 + exp [(V−V 0.5)/a]), where a is the slope of the half-maximum, V is the potential of the given pulse, and V 0.5 is the potential for the half-maximal activation/inactivation. The time course of inactivation was fitted to a single exponential function I/Imax = I0+A*exp (-t-t0/τ)+C, where I0 is the non-inactivating component, Imax is the peak current, t is time, and A is the component for the time constant τ. Time constants were plotted against voltage and the data fitted with a decaying exponential equation Y = span*exp (−K*x)+plateau, where span is the starting point of the curve, K is the decay factor, plateau is the value the curve decays to, and x is time. To measure recovery from inactivation, normalized currents were plotted against ipi and data fitted with equation I/I max = 1-exp/(rc + x), where I max is maximal current; rc recovery rate constant; x is time. Peak current (I) was plotted as fractional recovery against the recovery period by normalizing to the maximum current (Imax) during the conditioning potentials.
# [8] = target: T2, human NaV1.2 channel (SCN2A, HEK293T cells); assay: as above; type: cell-based; conditions: change vs vehicle DMSO at IC50 concentration (CBD 18.4 μM, CBGA 14.7 μM, CBDVA 60 μM)
# Description: as §1, §2, §4, §5
# [9] = target: T3, human NaV1.7 channel (SCN9A, CHO cells); assay: as above; type: cell-based; conditions: change vs vehicle DMSO at IC50 concentration (CBD 11.9 μM, CBGA 16.4 μM, CBDVA 60 μM)
# Description: as §1, §2, §4, §5
# [10] = target: T4, human NaV1.6 channel (SCN8A, CHO cells); assay: as above; type: cell-based; conditions: change vs vehicle DMSO at IC50 concentration (CBD 16.6 μM, CBGA 12.0 μM, CBDVA 24.1 μM)
# Description: as §1, §2, §4, §5
# [11] = set-up: method as in Anderson et al., 2019b; conditions: CBDVA; ref Anderson et al., 2019b; cited from earlier work
# sodium channels = tested on: sodium channels; set-up: method as in Hill et al., 2014; Ghovanloo et al., 2022; conditions: different voltage protocols or model systems; ref Hill et al., 2014; Ghovanloo et al., 2022; read-out: IC50 (low affinity inhibitor of sodium channels); cited from earlier work
# [12] = tested on: PTZ-induced acute seizure model; set-up: method as in Hill et al., 2014; conditions: ref Hill et al., 2014; cited from earlier work
smiles,measurement,setting,value
"CCCCCc1cc(O)c2c(c1)OC(C)(CCC=C(C)C)C=C2 (centres unmarked) [CBC, cannabichromene]",Effect on peak sodium current (in words),[1],modestly inhibited
same,Effect on peak sodium current (in words),[2],modestly inhibited
same,Effect on peak sodium current (in words),[3],modestly inhibited
same,Effect on peak sodium current (in words),[4],modestly inhibited
same,Effect against hyperthermia-induced seizures,[5],anti-convulsant properties
same,Effect in electrically induced seizure model,[6],ineffective
"CCCCCc1cc2c(c(O)c1C(=O)O)C=CC(C)(CCC=C(C)C)O2 (centres unmarked) [CBCA, cannabichromenic acid]",Effect on peak sodium current (in words),[1],modestly inhibited
same,Effect on peak sodium current (in words),[2],modestly inhibited
same,Effect on peak sodium current (in words),[3],modestly inhibited
same,Effect on peak sodium current (in words),[4],modestly inhibited
same,Effect against hyperthermia-induced seizures,[5],anti-convulsant properties
"C=C(C)[C@@H]1CCC(C)=C[C@H]1c1c(O)cc(CCC)c(C(=O)O)c1O [CBDVA, cannabidivarinic acid]",Effect on peak sodium current (in words),[1],only partially inhibited
same,Effect on peak sodium current (in words),[2],only partially inhibited
same,IC50,"[2]; NaV1.2 peak current, 0.1–100 µM, 5 min exposure, mean ± SEM",≥ 60 µM
same,Effect on peak sodium current (in words),[3],only partially inhibited
same,IC50,"[3]; NaV1.7 peak current, 0.1–100 µM, 5 min exposure, mean ± SEM",≥ 60 µM
same,Slope (Hill slope coefficient),"[4]; NaV1.6 concentration-response, mean ± SEM",2.1 ± 0.5
same,IC50,"[4]; NaV1.6 peak current, 0.1–100 µM, 5 min exposure, mean ± SEM",24.1 ± 1.2 µM
same,Effect against hyperthermia-induced seizures,[5],anti-convulsant properties
same,Inactivation △ V0.5 inact,[7]; SSFI,−10.1 ± 2.3** mV
same,Inactivation △ slope factor,[7]; SSFI,1.8 ± 0.3***
same,Activation △ Slope factor,[7],1.7 ± 0.4***
same,Activation △ V0.5 act,[7],13.0 ± 1.6**** mV
same,Inactivation △ τinact SSFI at 5 mV,[7],0.4 ± 0.05****
same,Inactivation △ V0.5 inact,[8]; SSFI,−2.3 ± 1.5 mV
same,Inactivation △ slope factor,[8]; SSFI,1.0 ± 0.2***
same,Activation △ Slope factor,[8],0.9 ± 0.2****
same,Activation △ V0.5 act,[8],11.5 ± 1.5**** mV
same,Inactivation △ τinact SSFI at 5 mV,[8],0.4 ± 0.06****
same,Inactivation △ V0.5 inact,[9]; SSFI,−4.1 ± 0.9*** mV
same,Inactivation △ slope factor,[9]; SSFI,1.6 ± 0.3****
same,Activation △ Slope factor,[9],0.9 ± 0.2***
same,Activation △ V0.5 act,[9],8.7 ± 1.8*** mV
same,Inactivation △ τinact SSFI at 5 mV,[9],0.3 ± 0.07**
same,Inactivation △ V0.5 inact,[10]; SSFI,−3.0 ± 1.3* mV
same,Inactivation △ slope factor,[10]; SSFI,0.5 ± 0.3
same,Activation △ Slope factor,[10],1.9 ± 0.7*
same,Activation △ V0.5 act,[10],10.4 ± 2.9** mV
same,Inactivation △ τinact SSFI at 5 mV,[10],0.3 ± 0.09**
same,Estimated brain concentration attained at anti-convulsant doses,[11],5.5 µM
"CCCCCc1cc(O)c(C/C=C(\C)CCC=C(C)C)c(O)c1 [CBG, cannabigerol]",Effect on peak sodium current (in words),[1],modestly inhibited
same,Effect on peak sodium current (in words),[2],modestly inhibited
same,Effect on peak sodium current (in words),[3],modestly inhibited
same,Effect on peak sodium current (in words),[4],modestly inhibited
same,Effect against hyperthermia-induced seizures,[5],ineffective
same,IC50,sodium channels,2 to 22 µM
same,Anti-convulsant effect in PTZ-induced acute seizure model,[12],ineffective
